Results from patent US20220015371A1, “Compositions and Methods for Reducing Pesticide-Induced Plant Damage and Improving Plant Yield” (priority 2018, published 2022).

Key:
[1] = system: glyphosate-tolerant Palmer Amaranth; experiment: Palmer Amaranth shoot and root weight, greenhouse conditions; format: in vivo, Amaranthus palmeri; details: two weeks after spraying
From the text: To test the effects of the inventive plant treatment product on weed survival in herbicide-tolerant Palmer Amaranth (Amaranthus palmeri) plants, the plant treatment product (Composition C+herbicide) or herbicide component (alone) were applied to weeds, in greenhouse conditions. […] The measurements of dry shoot mass and dry root mass were taken two weeks after spraying.

[2] = system: rice of the variety Presidio; experiment: Rice crop injury in herbicide application program, field trial; details: visually rated 8 May, 0 = no injury, 100 = complete plant death
From the text: (§1) To further evaluate the performance of certain embodiments of the present disclosure, bacterial fermentation product of the present disclosure was applied in a common herbicide application program to test herbicide injury tolerance, weed control, grain yield and milling quality in rice. Experiments were established in a field of Crowley fine sandy loam soil (59% sand, […], 12% clay, 0.7% organic matter and pH 5.3). The field was cropped to rice for every third year for many years and was naturally infested with many weeds. Plots consisted of six 18-ft rows, spaced 7.5-in. between rows. The experiment was conducted as a randomized completed block design with four replications. The trial consisted of six treatments (see Table 12, below).
(§2) Rice of the variety Presidio was drill seeded at 70 lb/acre on 5 Apr. Seeds for treatments 2, 4, 5 and 6 were treated with Composition E at 2.3 oz product/CWT prior to planting. Compositions A and B were applied at 7 oz product/acre on 1 May (postemergence), 2 Jun (panicle differentiation, PD) and 19 Jun (boot), using a CO2 pressurized, hand-held sprayer equipped with a boom of three TeeJet 8002VS nozzles spaced 19-in. apart that traveled at 3 mph and delivered at 29 gal/acre at 40 psi. […]

broadleaf signalgrass = experiment: Weed control in rice field trial: broadleaf signalgrass; format: in vivo; details: visually rated 8 May
From the text: as §1, §2

yellow nutsedge = experiment: Weed control in rice field trial: yellow nutsedge; format: in vivo; details: visually rated 8 May
From the text: as §1, §2

carpet weed = experiment: Weed control in rice field trial: carpet weed; format: in vivo; details: visually rated 8 May
From the text: as §1, §2

rice plants [3] = experiment: Example 5: rice plants stressed by foliar cyhalofop, field trial; format: in vivo; details: cyhalofop 1500 ml/ha, three days after application (FIG. 12A)
Procedure: (§3) To test the effect of foliar application of an inventive fermentation culture lysate composition on rice plants stressed by foliar application of the chemical herbicide cyhalofop, field trial(s) were conducted. Control fields (FIG. 11, A; FIG. 12A) were treated with herbicide formulation comprising cyhalofop (foliar application at 1500 ml/ha). Test fields (FIG. 11, B; FIG. 12B) were treated with a combination of the herbicide formulation comprising cyhalofop (foliar application at 1500 ml/ha) and fermentation culture lysate Composition B (foliar application at 500 ml/ha).

rice seedlings = experiment: Example 2: rice seedlings stressed by post-emergence halosulfuron, field trial; format: in vivo; details: halosulfuron post-emergence 1800 ml/ha, Composition E seed treatment 150 ml/100 kg seed where applied (FIGS. 7A, 7B)
Procedure: To test the effect of seed application of an inventive fermentation culture lysate composition on rice seedlings stressed by post-emergence application of the chemical herbicide halosulfuron, various field trial(s) were conducted. Control fields (FIGS. 6A, 7A) were treated with herbicide formulation comprising halosulfuron (post-emergence at 1800 ml/ha). Test fields (FIGS. 6B, 7B) included seedling treated with the herbicide formulation comprising halosulfuron (post-emergence at 1800 ml/ha) from seeds treated with fermentation culture lysate Composition E (seed treatment at 150 ml/100 kg seed) during planting.

rice plants [4] = experiment: Example 6: rice plants stressed by foliar profoxydim, field trial; format: in vivo; details: profoxydim 750 ml/ha, three days after application (FIG. 14A)
Procedure: To test the effect of foliar application of inventive fermentation culture lysate composition(s) on rice plants stressed by foliar application of the chemical herbicide profoxydim, field trial(s) were conducted. Control fields (FIG. 13, A; FIG. 14A) were treated with herbicide formulation comprising profoxydim (foliar application at 750 ml/ha). Test fields were treated with either (FIG. 13, B; FIG. 14B) a combination of (i) herbicide formulation comprising profoxydim (foliar application at 750 ml/ha) and (ii) fermentation culture lysate Composition B (foliar application at 500 ml/ha) or (FIG. 13, C; FIG. 14C) a combination of (i) herbicide formulation comprising profoxydim (foliar application at 750 ml/ha), (ii) fermentation culture lysate Composition B (foliar application at 500 ml/ha), and (iii) fermentation culture lysate Composition F (foliar application at 500 ml/ha).

rice plants [5] = experiment: Example 3: rice plants stressed by foliar propanil, field trial; format: in vivo; details: propanil 4000 ml/ha, three days after application (FIG. 9A)
Procedure: as §3, with “propanil,” for “cyhalofop,”, “8,” for “11,”, “9A)” for “12A)”, “propanil” for “cyhalofop”, “4000” for “1500”, “9B)” for “12B)”

[6] = glyphosate 1.27 kg/ha, Composition C 1 liter/ha

O=C(O)CNCP(=O)(O)O [Herbicide, glyphosate]
Palmer Amaranth root dry weight per plant [1, 6]: 0.768 | Palmer Amaranth root fresh weight per plant [1, 6]: 4.70 | Palmer Amaranth shoot dry weight per plant [1, 6]: 5.31 | Palmer Amaranth shoot fresh weight per plant [1, 6]: 15.0 | Palmer Amaranth root dry weight, change vs Untreated Control [1]: −40.9% | Palmer Amaranth root fresh weight, change vs Untreated Control [1]: −51.3% | Palmer Amaranth shoot dry weight, change vs Untreated Control [1]: −7.01% | Palmer Amaranth shoot fresh weight, change vs Untreated Control [1]: −20.6%

CC1(C)CON(Cc2ccccc2Cl)C1=O [clomazone PRE, clomazone]
Crop injury (%) [2]: 5.0 d^y % | Weed Control (%) Broadleaf signalgrass (broadleaf signalgrass): 90 b % | Weed Control (%) Yellow nutsedge (yellow nutsedge): 0 b % | Weed Control (%) Carpet weed (carpet weed): 0 c %

C[C@@H](Oc1ccc(Oc2ccc(C#N)cc2F)cc1)C(=O)O [cyhalofop]
phytotoxicity symptoms (rice plants [3]): showed phytotoxicity symptoms

COc1cc(OC)nc(NC(=O)NS(=O)(=O)c2c(C(=O)O)c(Cl)nn2C)n1 [halosulfuron]
bleaching of rice seedlings (rice seedlings): caused bleaching

CCCC(=NOCC(C)Oc1ccc(Cl)cc1)C1=C(O)CC(C2CCCSC2)CC1=O (stereo not shown) [profoxydim]
phytotoxicity symptoms (rice plants [4]): showed phytotoxicity symptoms

CCC(=O)Nc1ccc(Cl)c(Cl)c1 [propanil]
phytotoxicity symptoms (rice plants [5]): showed phytotoxicity symptoms
